Laboratory results: patent US6509367B1 (priority 2001, dated 2003)
Like-named read-outs stand apart in the source and are kept apart here.

Key:
CB1 receptor = CB1 receptor (Rattus norvegicus, UniProt P20272); assay: biochemical; format: binding; settings: for Ki: 1 nM [3H] CP 55,940, rat whole brain P2 membranes, 30° C. for 1 hr
Protocol: (§1) Male ICR mice (25-32 g), purchased from Harlan (Dublin, Va.), were housed in groups of five. All animals were kept in a temperature-controlled (20-22° C.) environment with a 12-hour light-dark cycle (lights on at 7 a.m.). Separate mice were used for testing each drug dose in the in vivo behavioral procedures. The mice were maintained on a […] light: dark cycle, and received food and water ad libitum. Brain tissue for binding studies was obtained from male Sprague-Dawley rats (150-200 g) purchased from Harlan Laboratories (Dublin, Va.).
All assays, as described briefly below, were performed in triplicate, and the results represent the combined data from three to six individual experiments. Following decapitation and rapid removal of the brain, whole brain was homogenized and centrifuged. The resulting pellet was termed P1. The supernatant was saved and combined with the two subsequent supernatants obtained from washing of the P1 pellet. The combined supernatant fractions were centrifuged, resulting in the P2 pellet. After further incubation and centrifuging, this pellet was resuspended in assay buffer to a protein concentration of approximately 2 mg/ml. The membrane preparation was quickly frozen in a bath solution of dry ice and 2-methylbutane (Sigma Chemical Co., St. Louis, Mo.), then stored at −80° C. for no more than 2 weeks. […] Binding was initiated by the addition of 150 μg of P2 membrane to test tubes containing 1 nM of [3H] […] Following incubation at 30° C. for 1 hr, binding was terminated by addition of ice-cold buffer and vacuum filtration through pretreated filters in a 12-well sampling manifold (Millipore, Bedford, Mass.). After washing, filters were placed into plastic scintillation vials (Packard, Downer Grove, Ill.) and shaken. The quantity of radioactivity present was determined by liquid scintillation spectrometry.

mice [1] = assay: Spontaneous (locomotor) activity in mice, compound alone (agonism test); format: in vivo; settings: for change in vivo at 30 mg/kg: read-out: Max stim of spontaneous locomotor activity, Compound Alone; for ED50 / SA: > dose, 50% activity not achieved at this highest dose tested: mice, i.v.; for Max % inhibit of spontaneous locomotor activity, Compound Alone (in words: stimulation instead of inhibition): doses in mg/kg; for Max stim of spontaneous locomotor activity, Compound Alone: at 1 mg/kg i.v.
Protocol: as §1
(§2) Measurement of spontaneous activity in mice occurred in standard activity chambers interfaced with a Digiscan Animal Activity Monitor (Omnitech Electronics, Inc., Columbus, Ohio). A standard tail-flick apparatus (described by Dewey et al., 1970) and a digital thermometer (Fisher Scientific, Pittsburgh, Pa.) were used to measure antinociception and rectal temperature, respectively.
(§3) All drugs were administered to the mice intravenously (i.v.) in the tail vein at a volume of 0.1 ml/10 g.
(§4) Maximum latency of 10 sec was used.

mice [2] = assay: Tail-flick antinociception in mice, compound alone (agonism test); format: in vivo; settings: for ED50: Mus musculus, iv
Protocol: as §1, §2, §3, §4

mice [3] = assay: Rectal temperature (hypothermia) in mice, compound alone (agonism test); format: in vivo; settings: for ED50: Mus musculus, iv
Protocol: as §1, §2, §3, §4

mice [4] = assay: Spontaneous activity in mice, compound in combination with 3 mg/kg Δ^9-THC (antagonism test); format: in vivo; settings: for SA: maximum % antagonism of 3 mg/kg Δ^9-THC: analog 10 min before Δ^9-THC
Protocol: as §1, §2, §3, §4

mice [5] = assay: Tail-flick antinociception in mice, compound in combination with 3 mg/kg Δ^9-THC (antagonism test); format: in vivo; settings: at 30 mg/kg i.v.
Protocol: as §1, §2, §3, §4

mice [6] = assay: Rectal temperature in mice, compound in combination with 3 mg/kg Δ^9-THC (antagonism test); format: in vivo; settings: at 10 mg/kg i.v.
Protocol: as §1, §2, §3, §4

[7] = Mus musculus, iv, at 30 mg/kg i.v.
[8] = Mus musculus, iv, read-out: SA: > dose, 50% activity not achieved at this highest dose tested
[9] = read-out: TF: > dose, 50% activity not achieved at this highest dose tested
[10] = read-out: RT: > dose, 50% activity not achieved at this highest dose tested
[11] = at the dose(s) [mg/kg] given in parentheses in the cell

CB1 receptor, sequence (P20272 whole entry): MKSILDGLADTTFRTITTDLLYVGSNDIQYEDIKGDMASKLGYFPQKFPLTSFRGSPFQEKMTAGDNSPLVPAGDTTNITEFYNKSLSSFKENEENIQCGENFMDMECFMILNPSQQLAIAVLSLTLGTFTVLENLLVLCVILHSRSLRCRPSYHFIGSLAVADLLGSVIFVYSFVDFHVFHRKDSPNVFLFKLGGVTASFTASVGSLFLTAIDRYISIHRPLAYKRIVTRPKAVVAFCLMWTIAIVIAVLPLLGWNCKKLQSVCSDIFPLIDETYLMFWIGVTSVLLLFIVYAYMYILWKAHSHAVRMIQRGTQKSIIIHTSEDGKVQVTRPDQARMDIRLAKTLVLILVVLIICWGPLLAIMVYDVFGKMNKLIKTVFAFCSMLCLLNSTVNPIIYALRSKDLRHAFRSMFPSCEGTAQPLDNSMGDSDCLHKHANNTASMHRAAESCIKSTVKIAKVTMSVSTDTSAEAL

| Compound | Ki (CB1 receptor; Ki (nM)) | change in vivo at 30 mg/kg (mice [1]; [7]) | ED50 (mice [1]; [8]) | Max % inhibit of spontaneous locomotor activity, Compound Alone (in words: stimulation instead of inhibition) (mice [1]) | ED50 (mice [2]; [9]) | ED50 (mice [3]; [10]) | Ki (CB1 receptor; read-out: Ki) | Max stim of spontaneous locomotor activity, Compound Alone (mice [1]) | SA: > dose, 50% activity not achieved at this highest dose tested (mice [1]) | TF: > dose, 50% activity not achieved at this highest dose tested (mice [2]; i.v.) | RT: > dose, 50% activity not achieved at this highest dose tested (mice [3]; i.v.) | other results |
| --- | --- | --- | --- | --- | --- | --- | --- | --- | --- | --- | --- | --- |
| CCCCc1ccc(-n2nc(C(=O)NN3CCCCC3)c(C)c2-c2ccc(Cl)cc2)cc1 [Compound O-1254] | 226 ± 4 nM | 29% | > 30 mg/kg | stim at 3, 10 & 30 | > 30 mg/kg | > 30 mg/kg |  |  |  |  |  | Max stim of spontaneous locomotor activity, Compound with 3 mg/kg Δ^9-THC (mice [4]; at 30 mg/kg i.v.): 13% (30); SA: maximum % antagonism of 3 mg/kg Δ^9-THC (in words) (mice [4]; [11]): stimulation; Max % inhibit of spontaneous locomotor activity, Compound with 3 mg/kg Δ^9-THC (in words) (mice [4]; doses in mg/kg): stim at 10; % MPE: maximum % antagonism of 3 mg/kg Δ^9-THC (mice [5]): 52% (30); RT: maximum % antagonism of 3 mg/kg Δ^9-THC (mice [6]): 31% (10) |
| CCCCCc1ccc(-c2c(-c3ccc(Cl)cc3Cl)nn(C(=O)NN3CCCCC3)c2Br)cc1 [Compound O-1691, N-(N-Piperdyl)-3-(2,4-dichlrophenyl)-4-(4′-pentylphenyl)-5-bromopyrazole-carboxamide] |  |  |  |  |  |  | 1.5 ± 0.22 nM | 66% (1) | >30 mg/kg | >30 mg/kg | >30 mg/kg | Max % inhibit of spontaneous locomotor activity, Compound Alone (mice [1]; at 3 mg/kg i.v.): 15% (3); Max % inhibit of spontaneous locomotor activity, Compound with 3 mg/kg Δ^9-THC (mice [4]; at 0.1 mg/kg i.v.): 91% (0.1); SA: maximum % antagonism of 3 mg/kg Δ^9-THC (mice [4]; at 0.3 mg/kg i.v.): 6% (0.3); Max stim of spontaneous locomotor activity, Compound with 3 mg/kg Δ^9-THC (mice [4]; at 3 mg/kg i.v.): 150% (3) |
| CCCCC(C)c1c(C)c(C(=O)NN2CCCCC2)nn1-c1ccc(Cl)cc1Cl (stereo not shown) [Compound O-1559] |  | 118% | > 30 mg/kg | stim at 3, 10 & 30 | > 30 mg/kg | > 30 mg/kg | 233 nM |  |  |  |  |  |
| CCCNC(=O)c1nn(-c2ccc(Cl)cc2Cl)c(-c2ccc(Cl)cc2)c1C [Compound O-1399, N-(n-propyl)-5-(4-chlorophenyl)-1-(2,4-dichlorophenyl)-4-methyl-1H-pyrazole-3-carboxamide] | 167 ± 32 nM |  |  |  |  |  |  |  |  |  |  | CB1 binding affinity, fold decrease on shortening the n-pentyl amide (CB1 receptor; compared to O-1269): 5 fold; inhibition in vivo at 30 mg/kg (mice [1]; Mus musculus, iv, at 30 mg/kg i.v., read-out: Max % inhibit of spontaneous locomotor activity, Compound Alone): 100%; ED50 (mice [1]; Mus musculus, iv, 95% confidence limits in parentheses, * = estimated ED50, dose-effect curve not linear, read-out: SA (suppression of spontaneous activity) ED50): 9 µmol/kg; Max stim of spontaneous locomotor activity, Compound Alone (in words) (mice [1]; [11]): None (3, 10 & 30); ED50 (mice [2]; 20 min, i.v., 20 min post-injection, 95% confidence limits in parentheses, * = estimated ED50, dose-effect curve not linear, read-out: TF (tail flick, % MPE) ED50): 24 µmol/kg; ED50 (mice [3]; 0.5 h, i.v., 30 min post-injection, 95% confidence limits in parentheses, read-out: RT (rectal temperature) ED50): 10 µmol/kg |
| N-(N-Piperdyl)-3-(2,4-dichlrophenyl)-4-(4″-pentylphenyl)-5-iodopyrazole-carboxamide [Compound O-1704] |  |  |  |  |  |  | 2.2 nM | 57% (1) | >30 mg/kg | >30 mg/kg | >30 mg/kg | Max % inhibit of spontaneous locomotor activity, Compound Alone (mice [1]; at 30 mg/kg i.v.): 19% (30); Max % inhibit of spontaneous locomotor activity, Compound with 3 mg/kg Δ^9-THC (mice [4]; at 0.3 mg/kg i.v.): 85% (0.3); SA: maximum % antagonism of 3 mg/kg Δ^9-THC (mice [4]; at 3 mg/kg i.v.): 65% (3); Max stim of spontaneous locomotor activity, Compound with 3 mg/kg Δ^9-THC (mice [4]; at 10 mg/kg i.v.): 49% (10) |
| Cc1c(C(=O)NN2CCCCC2)nn(-c2ccccc2)c1-c1ccc(Cl)cc1 [Compound O-1300] | 150 ± 20 nM | 54% | > 30 mg/kg | stim at 30 | > 30 mg/kg | > 30 mg/kg |  |  |  |  |  | CB1 binding affinity, fold less than SR 141716A (CB1 receptor; compared to SR 141716A): 24 fold |
